# US10753892B2, “Non-invasive sensing of free metal ions using ion chemical exchange saturation transfer” (The Johns Hopkins University, priority 2013, dated 2020)
# Values joined by “and” are separate entries in the source; they are usually repeats but may differ in a detail not shown here. Equal values may be shown once. “Also recorded” adds a separate entry of the source. Marks after values point to notes of the source that are not given here.
# Legend:
# [1] = Bloch simulations, two pool model
# Procedure: (§5) Experiments were performed on solutions containing TF-BAPTA and multiple biologically relevant metal ions (K^+, Na^+, Ca^2+, Mg^2+, Cu^2+, Fe^2+ and Zn^2+) at 37° C. and pH=7.4. MR Spectroscopy as follows: TF-BAPTA was dissolved to a final concentration of 5 mM, and ions were add at 500 μM. Using 5-Fluorocytosine (5-FC) as an internal ^19F reference, ^19F-NMR spectra were acquired (11.7 T NMR spectrometer, Bruker). MRI: Experiments were performed on a 17.6 T MRI scanner (Bruker). TF-BAPTA was dissolved to 10 mM with 200″ AM of ion. A RARE (factor 8) sequence was used to acquire 1H MRI (TR/TE=5,000/7.7 ms, 1 mm slice, FOV=2×2 cm, matrix size=128×128). For ^19F MRI, the center frequency (O1) was set at the frequency of the 19F atom at the 6 position (0.0 ppm) of TF-BAPTA (FIG. 1a), while signal from the ^19F located at the 5 position of TF-BAPTA (FIG. 1a-b, 4.5 ppm downfield) was suppressed. A modified RARE sequence (TR/TE=4,000/3.4 ms, RARE factor=16, 6 mm slice, FOV=2×2 cm, matrix size=32×32, and a saturation pulse B1=1.2, 2.4 or 3.6 ItT/2 s) were used to acquire ^19F iCEST. Mean ^19F Z-spectra (iCEST spectra), were obtained after B0 correction. CEST contrasts, i.e., the magnetization transfer ratio (MTR) images were calculated after Lorentzian line shape fitting.
# [2] = Bloch simulations, two pool model; remark: listed apart in the source
# Procedure: as §5
# [3] = London et al., 1994; cited from earlier work
# [4] = 19F-CEST experiments with 5F-BAPTA at pH 7.0 (11.7 T NMR, 16.4 T MRI); type: binding; settings: 10 mM 5F-BAPTA, 100 μM M2+, saturation at Δω=5.8 ppm
# Procedure: ^19F-CEST experiments were performed on solutions containing 1,2-Bis-[2-bis(carboxymethyl)amino-5-fluorophenoxy]ethane (5F-BAPTA), with and without divalent cations (M^2+).
# Experiments were performed on an 11.7T NMR spectrometer (Bruker). 5F-BAPTA (AnaSpec, Inc.) was dissolved in 40 mM HEPES buffer (pH=7.0) to a concentration of 5 mM, and CaCl2 was dissolved to a final Ca^2+ concentration of 50 μm.
# ^19F-CEST spectra (z-spectra) were acquired with a saturation transfer sequence consisting of a saturation pulse (B1=4.7 μT, 4 sec) with variable offset (from −7.5 to +7.5 ppm relative to the 5FBAPTA frequency set at 0 ppm). Experiments were performed without (room temperature, RT) and with sample heating (37° C.). The MTRasym=100×(S−Δω−S+Δω)/S0 was computed at different offsets Δω, where S0 is the 5F-BAPTA signal without saturation.
# Imaging experiments were performed on a 16.4T MRI scanner (Bruker). 5F-BAPTA was dissolved to 10 mM in 40 mM HEPES, pH=7.0, with or without 100 μM of M^2+ (Mg^2+, Zn^2+, or Ca^2+).
# ^19F-CEST images were acquired using a continuous wave presaturation pulse (B1=3.6 μT, 3 sec) followed by a multi-echo MRI pulse sequence (RARE, rare factor 4, TR/TE=6000/10 ms). FOV of 4×4 cm, matrix 32×32 and slice thickness 10 mm. Mean ^19F-CEST spectra were derived after B0 correction for each voxel using MatLab. MTRasym plots and maps were calculated.
# [5] = 19F-iCEST MRI of 5F-BAPTA with Mg2+ (16.4 T, 37° C.); type: binding
# Procedure: (§1) 5F-BAPTA was dissolved in Hepes buffer (40 mM) to a final concentration of 10 mM and the pH was adjusted to the following values: 5.6, 6.0, 6.4, 6.8, 7.0, 7.2, and 7.6. Stock 10 mM solutions of CaCl2, MgCl2, and ZnCl2 were prepared in 40 mM Hepes buffer. Five μL of the stock solution was added to 1 mL of 10 mM 5F-BAPTA resulting in a 200:1 ratio (10 mM: 50 μM) between the free 5F-BAPTA and the M^2+ ion following by a pH adjustment. One mL of each sample (with adjusted pH) was transferred into a 8 mm NMR tube within a 25 mm NMR tube in order to center the sample in the coil for the MRI experiments.
# (§2) MRI experiments were performed on a vertical 16.4 T scanner (Bruker Avance system) at 37° C. A 25 mm birdcage radiofrequency coil was used to acquire both ^1H and ^19F MR images by sweeping the coil frequency from proton (700 MHz) to fluorine (658.8 MHz) frequency.
# (§3) The saturation transfer effect on the free 5F-BAPTA, i.e., the MTR or iCEST, was calculated for each voxel in the image by using a Lorentzian line shape fitting as described in Jones et al. (Magn Reson Med 2012, 67, 1579), and Liu et al. (Molecular imaging 2012, 11, 47).
# (§4) Saturation time (tsat) was either 1500 ms to 2000 ms as indicated in the text.
# [6] = 19F-iCEST MRI of 5F-BAPTA with Zn2+ (16.4 T, 37° C.); type: binding; settings: 10 mM 5F-BAPTA, 50 μM Zn2+, pH 7.2 and 6.4
# Procedure: as §1, §2, §3, §4
# [7] = Relaxation times T1 and T2 of free 5F-BAPTA as a function of pH; type: physicochemical; settings: free 5F-BAPTA 20 mM
# Procedure: The same image geometry as in the ^19F-CEST experiments was used for the determination of T1 and T2 of the imaged samples. For T1 measurements, a saturation recovery experiment was performed with TR values of 61, 214, 395, 615, 899, 1296 1964, and 4961 ms. A spin-echo experiment (TR=5000 ms) with multiple echoes was performed with variable echo times (TE=5, 10 15, 20, 25, 30, 35, and 40 ms) to determine the T2 value of each sample.
# Numerical solutions to the six Bloch equations including direct saturation of free 5F-BAPTA were obtained as described previously (McMahon, M. T. et al., Magnetic Resonance in Medicine 2006, 55, 836). The relaxation parameters for ^19F used in the Bloch equations were R1=1/T1 with bound calcium (Rib)=0.71 s^−1, R2 bound calcium (R2b)=29 s^−1, whereas the R1 and R2 values of free 5F-BAPTA (R1f and R2f) were determined experimentally through inversion-recovery and saturation-recovery experiments as a function of pH on solutions containing 20 mM 5F-BAPTA as listed in Table 1 as follows: […]
# [8] = 19F-iCEST MRI of 5F-BAPTA with Ca2+ (16.4 T, 37° C.), Bloch simulations; type: binding
# Procedure: as §1, §2, §3
# Numerical solutions to the six Bloch equations including direct saturation of free 5F-BAPTA were obtained as described previously (McMahon, M. T. et al., Magnetic Resonance in Medicine 2006, 55, 836). The relaxation parameters for ^19F used in the Bloch equations were R1=1/T1 with bound calcium (Rib)=0.71 s^−1, R2 bound calcium (R2b)=29 s^−1, whereas the R1 and R2 values of free 5F-BAPTA (R1f and R2f) were determined experimentally through inversion-recovery and saturation-recovery experiments as a function of pH on solutions containing 20 mM 5F-BAPTA as listed in Table 1 as follows:
# as §4
# An aqueous solution containing 0.5 mM of 5F-BAPTA and 500 nM in Hepes buffer (40 mM, pH=7.2) was transferred into a 20 mm NMR tube, which was located within a 25 mm NMR tube in order to centralize the sample in the coil for the MRI experiment. The same parameters used for ^19F-iCEST experiments were used except the followings: TR=3000 ms, RARE=8, FOV=6.0 cm (resolution=1.875×1.875 mm), and 168 averages.
# [9] = Relaxation times T1 and T2 of free 5F-BAPTA as a function of pH; type: physicochemical; settings: pH 5.6, estimated from the Bloch equation fitting
# [10] = cited from earlier work
smiles,measurement,setting,value
"O=C(O)CN(CC(=O)O)c1cc(F)c(F)cc1OCCOc1cc(F)c(F)cc1N(CC(=O)O)CC(=O)O [TF-BAPTA, 5,5′, 6,6′-tetrafluoro-BAPTA]",exchange rate (kex) between free and Fe2+-bound TF-BAPTA,[1],~20 s⁻¹
same,exchange rate (kex) between free and Zn2+-bound TF-BAPTA,[2],~20 s⁻¹
same,exchange rate of Ca2+ with TF-BAPTA,[3],"~30,000 s−1"
"O=C(O)CN(CC(=O)O)c1ccc(F)cc1OCCOc1cc(F)ccc1N(CC(=O)O)CC(=O)O [5F-BAPTA, 2,2′,2″,2′″-(2,2′-(Ethane-1,2-diylbis(oxy))bis(4-fluoro-2,1-phenylene))bis(azanetriyl)tetraacetic acid]","19F-CEST MRI contrast among tubes with no M2+, Mg2+, Zn2+ or Ca2+",[4],only the Ca^2+ containing solution generated contrast
same,"iCEST contrast, Mg2+ containing sample","[5]; 10 mM 5F-BAPTA, 50 μM Mg2+, pH 7.2 and 6.4",did not generate iCEST contrast
same,amplification factor for Mg2+,"[5]; iCEST, FIG. 10b",10
same,"iCEST contrast, Zn2+ containing sample",[6],did not generate iCEST contrast
same,T1,[7]; pH 5.6,715 ms
same,T1,[7]; pH 6.0,715 ms
same,T2,[7]; pH 6.0,10 ms
same,T1,[7]; pH 6.4,715 ms
same,T2,[7]; pH 6.4,11 ms
same,T1,[7]; pH 6.8,715 ms
same,T2,[7]; pH 6.8,25 ms
same,T1,[7]; pH 7.0,715 ms
same,T2,[7]; pH 7.0,32 ms
same,T1,[7]; pH 7.2,715 ms
same,T2,[7]; pH 7.2,38 ms
same,T1,[7]; pH 7.6,715 ms
same,Ca2+ concentration detected by iCEST,"[8]; 0.5 mM 5F-BAPTA, pH 7.2",500 nM
same,"iCEST (saturation transfer) contrast, Ca2+ containing sample","[8]; 10 mM 5F-BAPTA, 50 μM Ca2+, pH 7.2 and 6.4, B1=3.6 μT/2000 ms",pronounced saturation transfer contrast was detected; also recorded: large iCEST contrast was detected
same,kex between [Ca-5F-BAPTA] and 5F-BAPTA,"[8]; Bloch simulations, all examined pH values",190 s⁻¹ and 190 ± 10 s⁻¹
same,Ca2+ specificity in a Zn2+ background,"[8]; iCEST, FIGS. 13a-c",high Ca^2+ specificity
same,Ca2+ specificity in a Mg2+ background,"[8]; iCEST, FIGS. 14a-c",high Ca^2+ specificity
same,amplification factor for Ca2+,"[8]; iCEST, kex 190 s−1",~100
same,iCEST contrast in the Z-spectrum,"[8]; χCa=1:1000, 5 mM 5F-BAPTA, pH 7.2",~11%
same,T2 (ms),[9],6^a ms
"O=C(O)CN(CC(=O)O)c1ccccc1OCCOc1ccccc1N(CC(=O)O)CC(=O)O [BAPTA, 1,2-bis(o-aminophenoxy)ethane-N,N,N′,N′-tetraacetic acid]",selectivity for Ca2+ over Mg2+,[10],> 10^5
same,iCEST contrast produced by Ca2+ in mixtures,"[8]; 50 μM Ca2+ with 200 μM Mg2+ or 50 μM Zn2+, 10 mM chelate, pH 7.2, Δω=6 ppm",~22%
